The source of these data is patent US9808434B2, “Compound for treating cancer and diabetes” (CITY OF HOPE, priority 2011, dated 2017).

A short description of data set [1]: Metabolic effects in HFD obese mice. The class given is in vivo, mouse. Here is the method: All animal experiments were carried out in accordance with the protocols approved by the Institutional Animal Care and Use Committee of the City of Hope. Nine-week old male C57BL/6J mice fed on high fat diet (HFD, 60% fat) and 10-week old db/db mice were given COH-SR4 (5 mg/kg B.W.) or vehicle (corn oil) via oral gavage every other day for six and five weeks, respectively. Oral glucose tolerance test was performed on animals after an overnight fast. All other metabolic parameters were measured at the end of study. Liver samples were stained with H&E and Oil Red O.
All data represented are mean±SEM. *P<0.05, **P<0.01 vs. LFD or db/+; ^#P<0.05, ^##P<0.01 vs. HFD or db/db. n=12 animals per group for HFD mice. LFD=low fat diet (lean), HFD=high fat diet (obese). n=8 animals per group for db/db mice.
Representative mice in each treatment group (LFD, HFD, and HFD treated with COH-SR4 (HFD+SR4)) depicted gross images of whole body shape (top) and abdominal fat (bottom) (FIG. 85A).

The test system of a further data set is SK-Mel-5. Nature of the data set: Colony formation assay, SK-Mel-5. The class given is cell-based, human. The following applies: 5 μM. Here is the method: Cell survival was evaluated using a standard colony-forming assay. In total, 1×10^5 cells/mL were incubated with COH-SR4 (1.5 μM or 5 μM) or elesclomol (5 μM) for 24 h, and aliquots of 50 or 100 μL were added to 60 mm size petri dishes, containing 4 mL culture medium. After 7 or 10 days, adherent colonies were fixed, stained with 0.5% methylene blue for 30 min and colonies were counted using the Innotech Alpha Imager HP (91).

In data set [2] the test system is B16-F0 and A2058 melanoma cells. Nature of the data set: TUNEL apoptosis assay, melanoma. Type of data set: cell-based. The settings on record: 24 h. On the procedure:
For TUNEL assay, 1×10^5 cells were grown on the cover slips for ˜12 h followed by treatment with COH-SR4 (5 μM or 10 μM) or elesclomol (5 μM) for 24 h. Apoptosis was determined by the labeling of DNA fragments with terminal deoxynucleotidyl-transferase dUTP nick-end labeling (TUNEL) assay using Promega fluorescence apoptosis detection system, and examined using Zeiss LSM 510 META laser scanning fluorescence microscope with filters 520 and 620 nm according to the protocol described previously (91). Photographs taken at identical exposure at ×400 magnification are presented.

The target in another data set is T1, GSTP (Homo sapiens, UniProt P09211).
T1 construct: made in house; host or cells: E. coli BL21 (DE3)
Nature of the data set: GSTP activity towards CDNB in the presence of GSR4. The following applies: activity towards CDNB; read-out: estimated Ki (product inhibitor of GSTP). Type of data set: biochemical. Here is the method: Furthermore, GSTP activities towards CDNB were assessed in the presence of various concentration of GSR4. The GSTP activities decreased when the concentration of GSR4 increased (Table 3). Thus, […] was a product inhibitor of GSTP with an estimated Ki of less than 5 μM.

A further data set deals with U251 glioma cells. Nature of the data set: Combination index with chemotherapy drugs, U251. Type of data set: cell-based. Here is the method: Effects of combination of COH-SR4 and a chemotherapy drug such as TMZ, SN38, CPT-11, and 5-FU were studied by combination index (CI) theorem and plot using the method described in Chou (“Experimental Design, and Computerized Simulation of Synergism and Antagonism in Drug Combination Studies,” Pharmacological Reviews, Vol. 58, No. 3), which is incorporated herein by reference in its entirety.
COH-SR4 and a chemotherapy drug (TMZ, SN38, CPT-11, or 5-FU) were dissolved in DMSO individually, and then diluted to the appropriate concentration in the same cell culture media before applying to cells of each cell line. After 4 days, the amount of ATP present in the cell lysates were assessed using Progema's CellGlo kit. The CI of each combination of COH-SR4 and the chemotherapy drug was calculated and plotted against the concentration of COH-SR4 for each concentration of the chemotherapy drug used.

The next data set concerns B16F10 cells. Nature of the data set: B16F10 cell viability. Type of data set: cell-based, mouse. The following applies: 1-10 μM, 48 hours; vs COH-SR9 and COH-SR18. On the procedure:
Cells of highly aggressive mouse melanoma cell line B16F10 were incubated with various doses of COH-SR4, COH-SR9 and COH-SR18 (1, 3, 5 or 10 μM) for 48 hours.

Another data set deals with H358 cells. Nature of the data set: MTT assay, H358. Type of data set: cell-based. The settings on record: Homo sapiens, NCI-H358, 48 h. Here is the method:
Cell density measurements were performed using a hemocytometer to count reproductive cells resistant to staining with trypan blue. Approximately 20,000 cells were plated into each well of 96-well flat-bottomed micro-titer plates. After 12 h or 24 h incubation at 37° C., medium containing either COH-SR4 (ranging 0-200 μM) or elesclomol (ranging 0-20 μM) were added to the cells. After 24 h, 48 h or 96 h incubation, 20 μL of 5 mg/mL MTT were introduced to each well and incubated for 2 h. The plates were centrifuged and medium was decanted. Cells were subsequently dissolved in 100 μl DMSO with gentle shaking for 2 h at room temperature, followed by measurement of OD570 (91).
The effect of COH-SR4 was first examined in a NCI panel of cancer cell lines, the results of which indicated good activity of COH-SR4 towards lung cancer (FIG. 78A). […] Values are presented as mean±SD from two separate determinations with eight replicates each (n=16) (FIG. 78B). […] Standard colony-forming assay was performed and the colonies were counted using Innotech Alpha Imager HP. […] TUNEL assay was performed using Promega fluorescence detection kit and examined using Zeiss LSM 510 META laser-scanning fluorescence microscope with filters 520 and 620 nm. […]
For orientation: Formazan colour is commonly taken as a measure of viable cells.

Some results are limits rather than exact numbers.

Usually Ki stands for the dissociation constant of the complex between target and ligand, obtained from inhibition or displacement. Usually IC50 stands for the concentration at which inhibition is half-maximal.

T1 sequence (P09211 whole entry): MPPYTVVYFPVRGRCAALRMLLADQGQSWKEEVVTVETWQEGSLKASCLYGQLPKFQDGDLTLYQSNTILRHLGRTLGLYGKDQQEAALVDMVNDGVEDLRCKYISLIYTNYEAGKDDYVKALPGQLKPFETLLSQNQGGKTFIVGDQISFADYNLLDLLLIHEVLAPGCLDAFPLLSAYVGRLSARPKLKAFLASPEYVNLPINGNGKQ

As to `O=C(Nc1cc(Cl)cc(Cl)c1)Nc1cc(Cl)cc(Cl)c1` [COH-SR4, 1,3-bis(3,5-dichlorophenyl) urea], the body weight result in data set [1] (5 mg/kg oral every other day, six weeks) is on record as “decreased body weight”. Also, the glucose tolerance result in data set [1] (six weeks) was “improved glucose tolerance”. Further, the “hepatic lipid accumulation (Oil Red O, H&E)” value in data set [1] (six weeks) is on record as “little hepatic lipid accumulation”. The plasma insulin concentration entry in data set [1] (six weeks) is “lower plasma insulin concentration”. Besides, the plasma lipids entry in data set [1] (six weeks) is “significantly reduced plasma lipids”. Further, the food intake entry in data set [1] (vs control HFD mice) is “No significant difference in food intake”. In the data set on SK-Mel-5, this compound showed a colony formation of 22±8%. The “apoptosis (DNA fragmentation, TUNEL)” value in data set [2] (5 μM) and in data set [2] (10 μM) was “induced apoptosis” each time. Besides, the inhibition constant (Ki) on GSTP was less than 5000 nM. Further, the results for the “combination effect (CI) with CPT-11” value with U251 glioma cells (COH-SR4 <0.5 μM + CPT-11 <0.125 μM) and in the data set with U251 glioma cells (COH-SR4 >0.675 μM + CPT-11 >0.5 μM) were “Synergism” and “Additive effects”, respectively. The “combination effect (CI) with SN-38” value is given as “Synergism” in the data set with U251 glioma cells (COH-SR4 <0.5 μM + SN-38 <0.001 μM) and “Additive effects” with U251 glioma cells (COH-SR4 >0.5 μM + SN-38 <0.003 μM). Further, the “combination effect (CI) with TMZ” value in the data set with U251 glioma cells (COH-SR4 <0.5 μM + TMZ 12.5 μM, 4 days) is “Synergism”; in the data set with U251 glioma cells (COH-SR4 >0.65 μM + TMZ 100 μM) it was “Additive effects”. Also, the “potency in killing B16F10 cells” value in the data set on B16F10 cells was “best potency”. In the data set with H358 cells, the IC50 turned out to be 2100 ± 200 nM.
